Activity calls are given as the source filed them. No rule for the calls is given here.
System: GENE-TOX genotoxicity assays, various organisms and cells
Experiment: GENE-TOX mutagenicity studies
Conditions: for call: Assay Type: In vivo carcinogenicity studies
[1] = Species/Cell Type: Saccharomyces cerevisiae, Assay Type: Mitotic recombination or gene conversion, Assay Code: YEC+, Evaluation Type: Evaluation A (Pre-1980)
[2] = Species/Cell Type: Salmonella typhimurium (one or more of the five standard strains: TA98, TA100, TA1535, TA1537, and TA1538), Assay Type: Histidine reverse gene mutation, Ames assay, Assay Code: SAL+, Evaluation Type: Evaluation A (Pre-1980)
[3] = Species/Cell Type: Human lymphocytes, Assay Type: Sister-chromatid exchange (SCE) in vitro, Assay Code: SCLT, Evaluation Type: Evaluation B (Post-1980)

Nc1ccc2cc3ccc(N)cc3nc2c1
mutagenic call (Species/Cell Type: Drosophila melanogaster, Assay Type: Aneuploidy, sex chromosome gain, chromosome aberrations, Assay Code: DAGT, Evaluation Type: Evaluation A (Pre-1980)): no conclusion
mutagenic call (Species/Cell Type: Drosophila melanogaster, Assay Type: Aneuploidy, whole sex chromosome loss, chromosome aberrations, Assay Code: DAC+F, Evaluation Type: Evaluation A (Pre-1980)): active; positive
mutagenic call (Species/Cell Type: Escherichia coli polA (W3119 vs P3478), Assay Type: Rec-assay, DNA effects (bacterial DNA repair), Assay Code: RE1+, Evaluation Type: Evaluation A (Pre-1980)): active; positive
mutagenic call (Species/Cell Type: Human lymphocytes, Assay Type: Sister-chromatid exchange (SCE) in vitro, Assay Code: SCL+, Evaluation Type: Evaluation B (Post-1980)): active; positive
mutagenic call (Species/Cell Type: Human, Assay Type: Sister-chromatid exchange (SCE) in vitro, Assay Code: SC1+, Evaluation Type: Evaluation B (Post-1980)): active; positive
mutagenic call (Species/Cell Type: Mouse lymphoma (L5178Y) cells, Assay Type: Forward gene mutation at the thymidine kinase (TK) locus, chromosome aberrations, Assay Code: L51+, Evaluation Type: Evaluation A (Pre-1980)): active; positive
call (Species/Cell Type: Nonhuman, Assay Code: CCGT, Evaluation Type: Evaluation A (Pre-1980)): no conclusion
mutagenic call (Species/Cell Type: Nonhuman, Assay Type: Sister-chromatid exchange (SCE) in vitro, Assay Code: SC2+, Evaluation Type: Evaluation B (Post-1980)): active; positive
mutagenic call (Species/Cell Type: Nonhuman, Assay Type: Sister-chromatid exchange (SCE) in vitro, Assay Code: SC2+D, Dose Response: With dose response, Evaluation Type: Evaluation A (Pre-1980)): active; positive
mutagenic call (Species/Cell Type: Nonhuman, Assay Type: Sister-chromatid exchange (SCE) in vivo, Assay Code: SC3-, Evaluation Type: Evaluation A (Pre-1980)): inactive; negative
mutagenic call (Species/Cell Type: Nonhuman, Assay Type: Sister-chromatid exchange (SCE) in vivo, Assay Code: SC3T, Evaluation Type: Evaluation B (Post-1980)): no conclusion
mutagenic call [1]: active; positive
mutagenic call (Species/Cell Type: Saccharomyces cerevisiae, Assay Type: Mitotic recombination or gene conversion, Assay Code: YECT, Evaluation Type: Evaluation A (Pre-1980)): no conclusion
mutagenic call [2]: active; positive

Cc1cccc(C)c1O
mutagenic call [3]: no conclusion

NC(=O)N1c2ccccc2C=Cc2ccccc21
mutagenic call [3]: no conclusion
mutagenic call (Species/Cell Type: Human, Assay Type: Sister-chromatid exchange (SCE) in vitro, Assay Code: SC1T, Evaluation Type: Evaluation B (Post-1980)): no conclusion
mutagenic call (Species/Cell Type: Salmonella typhimurium (one or more of the five standard strains: TA98, TA100, TA1535, TA1537, and TA1538), Assay Type: Histidine reverse gene mutation, Ames assay, Assay Code: SALT, Evaluation Type: Evaluation A (Pre-1980)): no conclusion

ClCc1ccc(-c2ccccc2)cc1
mutagenic call (Species/Cell Type: Chinese hamster ovary (CHO) cells, Assay Type: Forward gene mutation at the HPRT locus, Assay Code: CHOT, Evaluation Type: Evaluation B (Post-1980)): no conclusion
mutagenic call (Species/Cell Type: Human lymphocytes, Assay Type: Sister-chromatid exchange (SCE) in vitro, Assay Code: SCL+D, Dose Response: With dose response, Evaluation Type: Evaluation B (Post-1980)): active; positive
mutagenic call (Species/Cell Type: Human, Assay Type: Sister-chromatid exchange (SCE) in vitro, Assay Code: SC1+D, Dose Response: With dose response, Evaluation Type: Evaluation B (Post-1980)): active; positive
mutagenic call (Species/Cell Type: Mammalian polychromatic erythrocytes, Assay Type: Micronucleus test, chromosome aberrations, Assay Code: MNT-, Evaluation Type: Evaluation B (Post-1980)): inactive; negative

CC(CNC(=O)N(CCCl)N=O)NC(=O)N(CCCl)N=O (centres undefined)
mutagenic call (Species/Cell Type: Drosophila melanogaster, Assay Type: Sex-linked recessive lethal gene mutation, Assay Code: SRL+, Evaluation Type: Evaluation A (Pre-1980)): active; positive
mutagenic call [1]: active; positive

O=C(N[C@@H](CO)[C@@H](O)c1ccc([N+](=O)[O-])cc1)C(Cl)Cl
mutagenic call [2]: active; positive

COc1c2occc2c(OC)c2c(=O)cc(C)oc12
mutagenic call (Species/Cell Type: Human, Assay Type: Sister-chromatid exchange (SCE) in vitro, Assay Code: SC1T, Evaluation Type: Evaluation A (Pre-1980)): no conclusion

[O]=[V](=[O])[OH]
mutagenic call (Species/Cell Type: Bacillus subtilis (H17 vs M45), Assay Type: Rec-assay, spot test, DNA effects (bacterial DNA repair), Assay Code: REW+, Evaluation Type: Evaluation A (Pre-1980)): active; positive

COc1cc(N=Nc2ccccc2)ccc1N
mutagenic call (Species/Cell Type: Escherichia coli polA (W3110 vs P3478), Assay Type: Rec-assay, DNA effects (bacterial DNA repair), Assay Code: RE2+, Evaluation Type: Evaluation A (Pre-1980)): active; positive
mutagenic call (Species/Cell Type: Escherichia coli polA (W3119 vs P3478), Assay Type: Rec-assay, DNA effects (bacterial DNA repair), Assay Code: RE1T, Evaluation Type: Evaluation A (Pre-1980)): no conclusion
call (Species/Cell Type: Nonhuman, Assay Code: CCG+L, Evaluation Type: Evaluation A (Pre-1980)): active; positive
mutagenic call (Species/Cell Type: Saccharomyces cerevisiae, Assay Type: Mitotic recombination or gene conversion, Assay Code: YEH+/-*, Activation: With metabolic activation, Evaluation Type: Evaluation A (Pre-1980)): inactive; positive without activation, negative with activation
mutagenic call (Species/Cell Type: Salmonella typhimurium (one or more of the five standard strains: TA98, TA100, TA1535, TA1537, and TA1538), Assay Type: Histidine reverse gene mutation, Ames assay, Assay Code: SAL+*, Activation: With metabolic activation, Evaluation Type: Evaluation A (Pre-1980)): active; positive
mutagenic call (Species/Cell Type: Salmonella typhimurium, Assay Type: Forward and reverse gene mutation, host-mediated assay, Assay Code: HMA+, Evaluation Type: Evaluation A (Pre-1980)): active; positive
mutagenic call (Species/Cell Type: Syrian hamster embryo (SHE) cells, Assay Type: Cell transformation, clonal assay, Assay Code: CTC+, Evaluation Type: Evaluation A (Pre-1980)): active; positive
